Source: PubChem BioAssay (NCI)
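48-hour exposure; five concentrations; linearly interpolated endpoints. The concentration for full growth arrest is given as TGI.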

Tests used:
Test in all cases: NCI tumour cell line growth inhibition, 48 h
K-562 leukemia = system: K-562 leukemia
SNB-19 CNS = system: SNB-19 CNS
SR leukemia = system: SR leukemia
M14 melanoma = system: M14 melanoma
NCI-H460 lung = system: NCI-H460 lung
M19-MEL melanoma = system: M19-MEL melanoma
HOP-62 NSCLC = system: HOP-62 NSCLC
DLD-1 colon = system: DLD-1 colon
786-0 renal = system: 786-0 renal
SN12C renal = system: SN12C renal

Structure (SMILES)	TGI (K-562 leukemia) [µM]	TGI (SNB-19 CNS) [µM]	TGI (SR leukemia) [µM]	TGI (M14 melanoma) [µM]	TGI (NCI-H460 lung) [µM]	TGI (M19-MEL melanoma) [µM]	TGI (HOP-62 NSCLC) [µM]	TGI (DLD-1 colon) [µM]	TGI (786-0 renal) [µM]	TGI (SN12C renal) [µM]
O=C(O)CCC(O)=C1S(=O)(=O)OCCOS1(=O)=O	> 100	> 100	> 100	> 100	> 100	> 100	> 100	> 100	> 100	> 100
Cc1nc(-n2nc(-c3ccccc3)cc2-c2ccccc2)sc1C(=O)CC(=O)C(=O)Nc1ccc(Cl)c(Cl)c1	> 100	> 100	> 100	> 100	> 100	> 100	> 100	> 100	> 100	> 100
CC1(Cl)C(=O)NC(=O)N([C@H]2C[C@H](O)[C@@H](CO)O2)C1N=[N+]=[N-] (stereo not given in full)	> 100	> 100	> 100	> 100	> 100	> 100	> 100	> 100	> 100	> 100
Cc1cccc(NC(=O)c2c(N)[n+]([O-])c3ccccc3[n+]2[O-])c1	> 100	29.3	> 100	24.9	28.1	23.8	31.3	26	17.9	17
COc1ccc2c(=O)c(-c3cc(OC)c(OC)cc3OC)coc2c1	> 100	> 100	> 100	> 100	> 100	> 100	> 100	> 100	> 100	> 100
